# Measured values as given in the OPERA property sets (Mansouri et al. 2018).
row,logP,SMILES
1,2.85,CC(=O)C=Cc1ccccc1Cl
2,2.19,CC(=O)C=Cc1ccccc1O
3,3.03,CC(=O)C=Cc1cccc(C(F)(F)F)c1
4,2.65,CC(=O)C=Cc1ccc(C)cc1
5,2.42,COc1ccccc1C=CC(C)=O
6,3.26,CCc1ccc(C=CC(C)=O)cc1
7,2.73,CCOc1ccc(C=CC(C)=O)cc1
8,2.6,CC(=O)C=Cc1ccccc1C
9,3.05,COc1cccc(C=CC(=O)C(F)(F)F)c1
10,3.03,CC(=O)C=Cc1ccc(Br)cc1
11,2.66,CC(=O)C=Cc1ccc(N(C)C)cc1
12,2.66,O=C(C=Cc1cccc([N+](=O)[O-])c1)C(F)(F)F
13,3.33,COc1ccc(C=CC(=O)C(F)(F)F)cc1
14,3.63,O=C(C=Cc1ccc(Cl)cc1)C(F)(F)F
15,2.81,CC(=O)C=Cc1cccc(Cl)c1
16,3.13,CC(=O)C=Cc1ccc(C(F)(F)F)cc1
17,3.39,COc1ccccc1C=CC(=O)C(F)(F)F
18,2.45,N#Cc1cccc(C=CC(=O)C(F)(F)F)c1

row,logP,SMILES
1,3.02,CC(=O)C=Cc1cccc(Br)c1
2,2.22,CC(=O)C=Cc1ccc(F)cc1
3,2.25,COc1ccc(C=CC(C)=O)cc1
4,1.64,CC(=O)C=Cc1ccc(C#N)cc1
5,3.01,O=C(C=Cc1ccccc1)C(F)(F)F
6,3.58,O=C(C=Cc1cccc(Cl)c1)C(F)(F)F
7,2.68,CC(=O)C=Cc1cccc(C)c1
8,2.25,CC(=O)C=Cc1cccc(F)c1
9,1.86,CC(=O)C=Cc1ccc(O)cc1
10,2.27,COc1cccc(C=CC(C)=O)c1
11,1.88,CC(=O)C=Cc1cccc([N+](=O)[O-])c1
12,1.59,CC(=O)C=Cc1cccc(C#N)c1
13,1.9,CC(=O)C=Cc1ccc([N+](=O)[O-])cc1
14,2.42,N#Cc1ccc(C=CC(=O)C(F)(F)F)cc1
15,2.34,CC(=O)C=Cc1ccccc1F
16,1.63,CC(=O)C=Cc1ccc(OC(C)=O)cc1
17,3.5,O=C(C=Cc1ccccc1Cl)C(F)(F)F
18,3.14,CC(=O)C=Cc1ccccc1C(F)(F)F

row,SMILES,logP
1,CC(=O)C=Cc1ccc(Cl)cc1,2.8
